Data from US20030005484A1, “Microbiocidal and pesticidal aromatic aldehydes” (ProGuard, Inc., priority 1994, published 2003).

Key:
[1] = tested on: Fusarium subglutinans f. sp. pini; test: radial growth on amended potato dextrose agar; type: cell-based; conditions: five days at 18° C
Procedure: A double-blind bioassay was undertaken using cinnamic aldehyde in various concentrations and formulations. The bioassay was based on inhibition of radial growth of Fusarium subglutinans f. sp. pini. Eight ml of formulation (concentration unknown) was pipetted into 200 ml of molten 2% potato dextrose agar (PDA) and the mixture was dispersed into five plastic petri dishes (25 ml dish). Each of four plates was inoculated at the center with an agar plug transferred from a growing PDA culture of Fusarium subglutinans f. sp. pini (isolate SL-1, UCB), while the fifth plate was left noninoculated as a control. These steps were repeated for each formulation of the cinnamic aldehyde. As a positive control, four PDA plates amended with 5 ppm benomyl were inoculated. as described; the negative control was four unamended PDA plates that were inoculated with F. subglutinans. All inoculated and non-inoculated plates were incubated at 18° C. for five days, after which colony diameters were measured.

[2] = tested on: aphids; test: aphids on sprayed roses; type: in vivo; conditions: roses sprayed with emulsion of cinnamic aldehyde and sodium bicarbonate, concomitantly saponin

O=C/C=C/c1ccccc1 [cinnamic aldehyde]
Colony diameter (cm) ([1]; 10 ppm CNMA (with saponin: 0.86 ml Yucca extract 10° BRIX)): 4.36 cm | Colony diameter (cm) ([1]; 10 ppm CNMA (with saponin: 0.86 ml Yucca extract 10° BRIX), listed as CNMA): 4.363 cm | Colony diameter (cm) ([1]; 100 ppm CNMA (with saponin: 0.86 ml)): 4.238 cm | Colony diameter (cm) ([1]; 100 ppm CNMA (with saponin: 0.86 ml), listed as PGXL CNMA): 4.24 cm | Colony diameter (cm) ([1]; 2,500 ppm CNMA (with saponin: 0.86 ml)): 3.513 cm | Colony diameter (cm) ([1]; 2,500 ppm CNMA (with saponin: 0.86 ml), listed as PGXL CNMA): 3.51 cm | Colony diameter (cm) ([1]; 5,000 ppm CNMA (with saponin: 0.86 ml)): 2.908 cm | Colony diameter (cm) ([1]; 5,000 ppm CNMA (with saponin: 0.86 ml), listed as PGXL CNMA): 2.91 cm | Colony diameter (cm) ([1]; 12,500 ppm CNMA (with saponin: 0.86 ml)): 0.000 cm | Colony diameter (cm) ([1]; 12,500 ppm CNMA (with saponin: 0.86 ml), listed as PGXL CNMA): 0 cm | Colony diameter (cm) ([1]; 25,000 ppm CNMA (with saponin: 0.86 ml)): 0.000 cm | Colony diameter (cm) ([1]; 25,000 ppm CNMA (with saponin: 0.86 ml), listed as PGXL CNMA): 0 cm | aphids on treated plants [2]: remained free of aphids
